Some test systems named below: 786-0 renal; A498 renal; CAKI-1 renal; HOP-62 NSCLC; HS 578T breast; IGROV1 ovarian; MALME-3M melanoma; MDA-N; OVCAR-4 ovarian; OVCAR-8 ovarian; RPMI-8226 leukemia; RXF 393 renal; SK-MEL-2 melanoma; SR leukemia; T-47D breast; UACC-257 melanoma; UACC-62 melanoma; MCF7 breast.
Assay in all cases: NCI tumour cell line growth inhibition, 48 h

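Results reflect a 48-hour exposure of cells in 96-well plates to compound at five concentrations. TGI: total growth inhibition.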

Turning to `O=[N+]([O-])c1ccc2nc(Nc3ccccc3)c(Nc3ccccc3)nc2c1`, the TGI is 7.83 µM in the experiment with 786-0 renal; 11.6 µM in the experiment with A498 renal; 11.2 µM with CAKI-1 renal; 2.45 µM in the experiment on HOP-62 NSCLC; 8.75 µM in the experiment with HS 578T breast; 4.98 µM in the experiment with IGROV1 ovarian. Also, the TGI was 4.79 µM in the experiment with MALME-3M melanoma; 2.23 µM with MDA-N; 11.3 µM in the experiment on OVCAR-4 ovarian; 6.45 µM with OVCAR-8 ovarian; greater than 100 µM in the experiment on RPMI-8226 leukemia; 6.6 µM in the experiment on RXF 393 renal. The TGI is 4.49 µM in the experiment with SK-MEL-2 melanoma; greater than 100 µM in the experiment on SR leukemia; 8.63 µM with T-47D breast; 5.1 µM in the experiment on UACC-257 melanoma; 2.23 µM in the experiment on UACC-62 melanoma.
Turning to `N#CSC#CCCC#CSC#N`, the TGI was 40.4 µM in the experiment with 786-0 renal; 37.7 µM with A498 renal; 33.7 µM in the experiment with CAKI-1 renal; 33.7 µM in the experiment on HOP-62 NSCLC; 76.2 µM with HS 578T breast; 45.1 µM in the experiment with IGROV1 ovarian. Also, the TGI turned out to be 34.3 µM in the experiment with MALME-3M melanoma; 48.2 µM in the experiment with MCF7 breast; 34.8 µM in the experiment with MDA-N; 58.5 µM in the experiment with OVCAR-4 ovarian; 60.7 µM in the experiment on OVCAR-8 ovarian; 35.7 µM in the experiment with RXF 393 renal. The TGI in the experiment with SK-MEL-2 melanoma is 43.1 µM; in the experiment with SR leukemia, greater than 100 µM; with UACC-257 melanoma it was 32.2 µM; with UACC-62 melanoma, 31.8 µM.
Regarding `Cc1ccc(-[n+]2cc([O-])on2)cc1`, the TGI with 786-0 renal, in the experiment on A498 renal, in the experiment on CAKI-1 renal, in the experiment on HOP-62 NSCLC, in the experiment with HS 578T breast and in the experiment with IGROV1 ovarian was greater than 100 µM each time. Further, the TGI with MALME-3M melanoma, in the experiment on MDA-N, with OVCAR-4 ovarian, in the experiment with OVCAR-8 ovarian, in the experiment on RPMI-8226 leukemia and with RXF 393 renal was greater than 100 µM in each case. The TGI in the experiment with SK-MEL-2 melanoma, in the experiment with SR leukemia, with T-47D breast, in the experiment on UACC-257 melanoma and with UACC-62 melanoma was greater than 100 µM each time.
As to `CCOC(=O)CCCSCCCC(=O)CCCSCCCC(=O)OCC`, the TGI in the experiment on 786-0 renal, in the experiment with HOP-62 NSCLC, with IGROV1 ovarian, in the experiment with MCF7 breast, with MDA-N and with OVCAR-4 ovarian was greater than 100 µM each time. Further, the TGI in the experiment on OVCAR-8 ovarian, with SR leukemia, with T-47D breast, with UACC-257 melanoma and with UACC-62 melanoma was greater than 100 µM throughout.
Turning to `CCOC(=O)c1ccc(-c2cc(C)no2)[nH]1`, the TGI with 786-0 renal is greater than 100 µM; in the experiment with A498 renal, greater than 100 µM; in the experiment with CAKI-1 renal, 71.5 µM; with IGROV1 ovarian, greater than 100 µM; with MALME-3M melanoma it was greater than 100 µM; in the experiment on MDA-N, greater than 100 µM. The TGI in the experiment on OVCAR-4 ovarian, in the experiment with OVCAR-8 ovarian, in the experiment with RPMI-8226 leukemia, in the experiment with RXF 393 renal, in the experiment on SK-MEL-2 melanoma and with T-47D breast was greater than 100 µM in each case. Also, the TGI with UACC-257 melanoma and in the experiment with UACC-62 melanoma was greater than 100 µM in each case.
Take `CCOC(=O)/C(C#N)=C/c1coc2cc(C)cc(C)c2c1=O`: the TGI in the experiment with 786-0 renal, with A498 renal, in the experiment with CAKI-1 renal, in the experiment with HOP-62 NSCLC, in the experiment on HS 578T breast and with IGROV1 ovarian was greater than 100 µM each time. Also, the TGI in the experiment on MALME-3M melanoma, in the experiment with MDA-N, in the experiment on OVCAR-8 ovarian, with RPMI-8226 leukemia, in the experiment with RXF 393 renal and with SR leukemia was greater than 100 µM in each case. In addition, the TGI in the experiment on T-47D breast, with UACC-257 melanoma and with UACC-62 melanoma was greater than 100 µM each time.
As for `CON(C)C(=O)C(C)N(Cc1ccccc1)Cc1ccccc1` (stereo unspecified), the TGI in the experiment on 786-0 renal, in the experiment with A498 renal, in the experiment on HOP-62 NSCLC, in the experiment with HS 578T breast, with IGROV1 ovarian and with MALME-3M melanoma was greater than 100 µM throughout. For the same molecule, the TGI in the experiment with MCF7 breast, in the experiment with MDA-N, in the experiment with OVCAR-8 ovarian, in the experiment with RPMI-8226 leukemia, in the experiment on RXF 393 renal and in the experiment with SR leukemia was greater than 100 µM in each case. Besides, the TGI in the experiment on UACC-257 melanoma and in the experiment with UACC-62 melanoma was greater than 100 µM each time.
Turning to `O=C1/C(=C\c2ccc(Cl)cc2Cl)Sc2scc(-c3ccc(O)c(O)c3)[n+]21`, the TGI in the experiment with 786-0 renal was 31.6 µM; in the experiment on CAKI-1 renal, 43.4 µM; in the experiment with HOP-62 NSCLC it was 30.1 µM; in the experiment with HS 578T breast, greater than 100 µM; in the experiment with IGROV1 ovarian, 50.7 µM; in the experiment on MCF7 breast, 73.2 µM. Further, the TGI in the experiment with MDA-N worked out at 60.1 µM; in the experiment with OVCAR-4 ovarian it was 35.8 µM; with OVCAR-8 ovarian, 35.2 µM; in the experiment on RXF 393 renal, 37.1 µM; in the experiment with SK-MEL-2 melanoma, 35.5 µM; in the experiment with UACC-257 melanoma, 71.3 µM. Moreover, in the experiment on UACC-62 melanoma, the TGI was found to be 22.4 µM.
Consider `Cc1cn(C2OC(CO[Si](C)(C)C(C)(C)C)C(N(C)O[Si](C)(C)C(C)(C)C)C2[Se]c2ccccc2)c(=O)[nH]c1=O` (stereo unspecified), for which the TGI in the experiment with 786-0 renal was determined as 9.29 µM; in the experiment on A498 renal, 49.5 µM; with HOP-62 NSCLC, 43.1 µM; in the experiment on HS 578T breast it was 7.58 µM; with IGROV1 ovarian, 28.2 µM; in the experiment with MALME-3M melanoma, 29.4 µM. The TGI was 25.4 µM with MCF7 breast; greater than 100 µM in the experiment on MDA-N; 8.58 µM in the experiment on OVCAR-4 ovarian; 24.6 µM in the experiment with OVCAR-8 ovarian; greater than 100 µM with RPMI-8226 leukemia; 34 µM in the experiment on SK-MEL-2 melanoma. The TGI was greater than 100 µM in the experiment with SR leukemia and 42.4 µM with UACC-62 melanoma.

The record behind these values is PubChem BioAssay (NCI).
